{"source": "patent US7410504B2", "about": "“Adducts based on cyclic compounds and the use thereof as tanning agents and curing agents” (BASF Aktiengesellschaft, priority 2003, dated 2008)", "origin": "cited, not measured here", "settings": "small amounts of glutaraldehyde, from 0.5 to 0.9% by weight based on the pelt weight", "data": [{"smiles": "O=CCCCC=O", "note": "[glutaraldehyde]", "values": [{"measurement": "Shrinkage temperature", "value": "≤ 70", "unit": "°C"}]}]}
